These compounds were tested on EPO induced pSTAT5 (assay: EPO-induced pSTAT5 in human whole blood (all events)). Conditions: JAK2/JAK2, read-out: EPO induced pSTAT5, cellular potency IC50.
Format: cell-based
Experimental: Human whole blood was collected from healthy donors via vein puncture into Vacutainer collection tubes containing sodium heparin in accordance with Pfizer protocols (Protocol No. GOHW RDP-01) approved by the Shulman Institutional Review Board. Blood was warmed to 37° C. priorto use. Human whole blood was aliquoted (90 μL/well) in 96-well, deep-well, V-bottom plates and treated with compounds (5 μL/well) at different concentrations up to 60 μM (0.2% DMSO final) at 37° C. for 60 minutes. This was followed by a challenge with IFNα (5000 U/mL), IFNγ (100 ng/mL), IL-6 (50 ng/mL), IL-10 (30 ng/mL), IL-12 (30 ng/mL), IL-15 (30 ng/mL), IL-21 (50 ng/mL), IL-23 (25 ng/mL), IL-27 (1000 ng/mL), EPO (2 U/mL), TSLP (50 ng/mL) or PBS and incubated for 15 minutes. Anti-cell surface antibodies were added 15 minutes prior to cytokine stimulation; anti-CD3-BV421 (0.5 μL/well) to IL-6-treated and TSLP-treated samples and anti-CD14-BV421 (0.5 μL/well) to IFNγ-treated samples. Samples were treated with warm 1×Lyse/Fix buffer (700 μL/well) to terminate activation and further incubated at 37° C. for 20 minutes to lyse red blood cells. Plates were centrifuged at 300×g for 5 minutes, supernatant was aspirated, and cells were washed with 800 μL/well of staining buffer (D-PBS containing 0.1% FBS and 0.01% sodium azide). Washed cell pellets were resuspended in 350 μL/well of prechilled 90% methanol and incubated at 4° C. for 30 minutes. After the removal of 90% methanol, cells were washed once with staining buffer. All samples were finally suspended in 150 μL/well of the desired anti-phospho-STAT antibodies at 1:150 dilution in staining buffer; anti-pSTAT1-AF647 in IFNγ treated samples; anti-pSTAT1-AF488 and anti-pSTAT3-AF647 in IL-6-treated samples, anti-pSTAT3-AF647 in IFNα, IL-10, IL-21, IL-23 and IL-27 treated samples, anti-pSTAT4-AF647 in IL-12 treated samples, anti-pSTAT5-AF-647 in EPO, IL-15 and TSLP-treated samples. Human primary keratinocytes were cultured in DermaLife™ medium with supplement kit to expand cell population. Cell passages 2 to 5 were used in the assays. Cells were harvested at ˜80% confluence, suspended in warm DermaLife™ medium, aliquoted (90 μL/well) in 96-well, deep-well, V-bottom plates, and incubated at 37° C. for 30 minutes. Cells were then treated with compounds (0.0003 to 20 μM) for 60 minutes and followed by stimulation with IL-4 (2 ng/mL) or IL-13 (20 ng/mL) at 37° C. for 15 minutes. […]
After overnight incubation at 4° C., anti-pSTAT stained samples were transferred into 96-well polypropylene U-bottom plates and flow cytometric analysis was performed on a LSR Fortessa™ equipped with a HTS plate loader. […] Background fluorescence was defined using unstimulated cells and a gate was placed at the foot of the peak to include ˜0.5% gated population. […]

IC50 [µM] | SMILES
9.47 | C[C@H](O)CS(=O)(=O)N[C@H]1C[C@@H](N(C)c2ncnc3[nH]ccc23)C1 (single isomer, unassigned) [IA (M2)]
18.1 | C[C@@H](O)CS(=O)(=O)N[C@H]1C[C@@H](N(C)c2ncnc3[nH]ccc23)C1 (single isomer, unassigned) [IC (M3)]
9.75 | CN(c1ncnc2[nH]ccc12)[C@H]1C[C@@H](NS(=O)(=O)CCCO)C1 [IB (M1), 3-Hydroxy-N-(cis-3-(methyl(7H-pyrrolo[2,3-d]pyrimidin-4-yl)amino)cyclobutyl)propane-1-sulfonamide]

From patent US20230219963A1, “PYRROLO[2,3-D]PYRIMIDINE DERIVATIVES” (Pfizer Inc., priority 2020, published 2023)
